Read-outs that look alike come from different tables or passages of the source. Bridge positions count the residues as written; N and C are the ends. Peptide text beside a SMILES is read from it. A value given as a limit tells only on which side of the number the result lay.

For test [1], the target named is T1, erbB3-erbB1 heteromerization (Homo sapiens, UniProt P00533).
T1 construct: the ectodomains of erbB receptors were immobilized on the surface chip; erbB1 and erbB3: gift of Dr. Mark A. Lemmon
T1 sequence (P00533 25-645 limits assumed, one chain of several): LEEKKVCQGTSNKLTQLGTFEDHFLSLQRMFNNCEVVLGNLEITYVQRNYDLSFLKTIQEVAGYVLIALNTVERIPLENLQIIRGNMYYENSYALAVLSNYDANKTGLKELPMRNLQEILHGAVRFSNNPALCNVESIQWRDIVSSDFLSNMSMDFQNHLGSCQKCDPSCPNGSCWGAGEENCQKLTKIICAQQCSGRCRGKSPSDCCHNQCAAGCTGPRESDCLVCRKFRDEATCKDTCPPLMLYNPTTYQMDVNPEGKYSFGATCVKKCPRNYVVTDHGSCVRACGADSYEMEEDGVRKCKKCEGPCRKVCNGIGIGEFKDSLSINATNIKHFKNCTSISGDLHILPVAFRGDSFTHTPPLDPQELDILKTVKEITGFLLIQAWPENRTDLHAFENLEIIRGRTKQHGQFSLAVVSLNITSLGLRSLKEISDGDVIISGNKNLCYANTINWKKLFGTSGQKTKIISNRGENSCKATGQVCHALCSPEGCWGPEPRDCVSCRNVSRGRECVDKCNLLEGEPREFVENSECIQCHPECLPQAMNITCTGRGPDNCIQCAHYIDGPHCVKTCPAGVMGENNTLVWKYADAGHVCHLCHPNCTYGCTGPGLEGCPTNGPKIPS
Description: SPR inhibition of HRGβ1-induced binding of ErbB3 to immobilized ErbB1. Particulars: peptide 10 μm, ErbB3 300 nm, HRGβ1 5 μM. The method, then:
(§1) The effect of cysteine-knot mimetics on receptor self-associations, was examined using a Biacore assay in which the ectodomains of erbB receptors were immobilized on the surface chip and the ectodomain of erbB3 was injected at 300 nM concentrations either alone or in the presence of 5 μM hereglunin HRGβ1.
(§2) The effect of the erbB peptides on heregulin-induced receptor self-associations was studied by preinjecting them at 10 μM followed by injection of erbB3-HRGβ1 (FIG. 4; 1B, 2B, 3B).
(§3) Binding experiments were performed with the surface plasmon resonance based biosensor instrument Biacore 3000 (Biacore AB, Uppsala, Sweden), at 25° C. […] (erbB2) and Dr. Mark A. Lemmon, Department of Biochemistry and Biophysics, University of Pennsylvania School of Medicine (erbB1 and erbB3). Immobilization of the erbB receptors in the sensor surface was performed following the standard amine coupling procedure according to manufacturer's instructions. Briefly, 35 μl of a solution containing 0.2 M N-ethyl-N′-(dimethylaminopropyl) carbodiimide (EDC) and 0.05 M N-hydroxysuccinimide (NHS), were injected at a flow rate of 5 μl/min to activate carboxyl groups on the sensor chip surface. Receptors (40 ng/ml in 10 mM NaOAc buffer, pH 5.0) were flowed over the chip surface at a flow rate of 20 μl/min until the desired level bound protein was reached. Unreacted protein was washed out and unreacted activated groups were blocked by the injection of 35 μl of 1 M ethanolamine at 5 μl/min. […] A reference surface was generated simultaneously under the same conditions but without receptor injection and used as a blank to correct for instrument and buffer artifacts. Peptides were injected at variable concentrations at 20 μl/min flow rate and binding to the receptors immobilized on the chip was monitored in real time. Each sensorgram consists of an association phase (first 240 s), reflecting binding of the injected peptide to the receptor, followed by a dissociation phase (300 s), during which the running buffer is passed over the chip and the bound peptide is being washed off the receptor surface.

In another test the target is T2, ErbB2 (Homo sapiens, UniProt P04626).
T2 construct: provided by Dr. Che Law, Xcyte Therapeutics, Seattle
T2 sequence (P04626 23-652 limits assumed): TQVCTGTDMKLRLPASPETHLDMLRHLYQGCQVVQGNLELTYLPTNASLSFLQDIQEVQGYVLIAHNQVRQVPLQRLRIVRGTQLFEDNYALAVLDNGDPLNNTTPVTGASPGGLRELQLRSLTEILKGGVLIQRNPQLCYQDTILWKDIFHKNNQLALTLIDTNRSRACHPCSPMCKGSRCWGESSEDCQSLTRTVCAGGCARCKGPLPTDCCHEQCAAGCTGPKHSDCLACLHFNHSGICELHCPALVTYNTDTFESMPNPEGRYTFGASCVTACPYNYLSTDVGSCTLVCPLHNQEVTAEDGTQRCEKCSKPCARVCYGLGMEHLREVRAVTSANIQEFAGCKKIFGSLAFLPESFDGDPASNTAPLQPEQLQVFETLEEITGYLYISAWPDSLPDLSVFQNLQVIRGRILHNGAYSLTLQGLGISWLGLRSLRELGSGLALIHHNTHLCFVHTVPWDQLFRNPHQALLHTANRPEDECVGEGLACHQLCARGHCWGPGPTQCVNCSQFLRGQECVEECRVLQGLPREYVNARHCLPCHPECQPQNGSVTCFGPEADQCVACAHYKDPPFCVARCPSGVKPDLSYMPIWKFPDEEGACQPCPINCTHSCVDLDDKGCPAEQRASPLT
Put plainly: Surface plasmon resonance (Biacore) binding to immobilized ErbB2 extracellular domain. As for the experimental part: The designed erbB peptides were tested for binding to erbB receptors using surface plasmon resonance (Biacore) technology (described supra) using soluble erbB-1 and erbB-3. The response was plotted in real time in the form of sensorgram curves. Dissociation constants (Kd) were determined as described (Park, et al. 2000, Nat. Biotechnol. 18:194-198).
A sensorgram for binding of B2-S22-APE peptide to erbB receptors immobilized on the sensor chip was performed.
as §3

The target of test [2] is T3, erbB3-erbB3 homomerization (Homo sapiens, UniProt P21860).
T3 construct: the ectodomains of erbB receptors were immobilized on the surface chip; erbB3: gift of Dr. Mark A. Lemmon
T3 sequence (P21860 20-643 limits assumed): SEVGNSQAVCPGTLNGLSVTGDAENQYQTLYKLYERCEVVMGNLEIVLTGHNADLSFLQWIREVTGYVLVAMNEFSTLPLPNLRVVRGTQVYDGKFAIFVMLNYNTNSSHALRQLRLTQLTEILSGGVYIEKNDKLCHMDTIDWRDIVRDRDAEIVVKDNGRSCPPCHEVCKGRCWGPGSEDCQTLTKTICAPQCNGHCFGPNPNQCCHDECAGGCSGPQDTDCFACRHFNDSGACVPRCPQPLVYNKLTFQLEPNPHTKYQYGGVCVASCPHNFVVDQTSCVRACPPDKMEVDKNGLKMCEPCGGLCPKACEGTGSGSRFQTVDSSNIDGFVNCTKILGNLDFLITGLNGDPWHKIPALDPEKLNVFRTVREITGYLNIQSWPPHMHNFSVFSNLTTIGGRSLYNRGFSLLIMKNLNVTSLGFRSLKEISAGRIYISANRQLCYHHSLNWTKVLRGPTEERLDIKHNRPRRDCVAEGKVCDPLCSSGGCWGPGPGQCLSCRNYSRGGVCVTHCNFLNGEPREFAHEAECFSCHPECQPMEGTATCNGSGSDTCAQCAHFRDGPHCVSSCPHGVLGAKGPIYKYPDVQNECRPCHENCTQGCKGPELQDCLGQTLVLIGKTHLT
Description: SPR inhibition of HRGβ1-induced binding of ErbB3 to immobilized ErbB3. Particulars: peptide 10 μm, ErbB3 300 nm, HRGβ1 5 μM. As for the experimental part: as §1, §2, §3

A further test has as its target T4, ErbB3 (Homo sapiens, UniProt P21860).
T4 construct: gift of Dr. Mark A. Lemmon, University of Pennsylvania School of Medicine
Put plainly: Surface plasmon resonance (Biacore) binding to immobilized ErbB3 extracellular domain. The method, then: (§4) The designed erbB peptides were tested for binding to erbB receptors using surface plasmon resonance (Biacore) technology (described supra) using soluble erbB-1 and erbB-3. The response was plotted in real time in the form of sensorgram curves.
as §3

The target of a further test is T5, ErbB1 (Homo sapiens, UniProt P00533).
T5 construct: gift of Dr. Mark A. Lemmon, University of Pennsylvania School of Medicine
T5 sequence (P00533 25-645 limits assumed): as the sequence (P00533 25-645 limits assumed, one chain of several) above
Put plainly: Surface plasmon resonance (Biacore) binding to immobilized ErbB1 extracellular domain. As for the experimental part:
as §4, §3

Test [3] has as its target T6, erbB3-erbB2 heteromerization (Homo sapiens, UniProt P04626).
T6 construct: the ectodomains of erbB receptors were immobilized on the surface chip; erbB2: Dr. Che Law, Xcyte Therapeutics; erbB3: Dr. Mark A. Lemmon
Put plainly: SPR inhibition of HRGβ1-induced binding of ErbB3 to immobilized ErbB2. Particulars: peptide 10 μm, ErbB3 300 nm, HRGβ1 5 μM. As for the experimental part: as §1, §2, §3

Another test addresses T7, erbB2-SbdIV (Homo sapiens, UniProt P04626).
T7 construct: The DNA fragment encoding the subdomain IV of erbB2 (erbB2-SbdIV) was generated by polymerase chain reaction; GST (N); made in house; host or cells: Escherichia coli BL-21 (DE3), vector pGEX-5X-3
Put plainly: Surface plasmon resonance binding to immobilized recombinant erbB2-SbdIV. The source says:
Since erbB peptides are derived from subdomain IV of different erbB receptors, this fact indicates direct involvement of subdomain IV in receptor-receptor interactions between the members of erbB receptor family.
The DNA fragment encoding the subdomain IV of erbB2 (erbB2-SbdIV) was generated by polymerase chain reaction. The upstream primer was 5′-[…]-3′ [SEQ ID NO: 44] and the downstream primer was 5′-[…]-3′. [SEQ ID NO: 45] These two primers were designed to include BamHI and Not I restriction sites, respectively, for inframe insertion into the BamHI/Not I linearized pGEX-5X-3 vector. Recombinant vector was used to infect Escherichia coli BL-21 (DE3). 100 ml of the 2XYT medium were inoculated with 10 ml of the overnight culture and grown at 37° C. until the OD600 of 0.4-0.5 was reached. IPTG was added to the medium at the final concentration of 0.1 mM and grown for 2 hrs. The cells were spun down by centrifugation at 4,000 g for 10 min and resuspended with 5 ml of cold PBS (with DTT, PMSF and aprotinin at the final concentration of 5 mM, 1 mM and 1 μg/ml respectively). After sonication on ice, Triton X-100 was added to the final concentration of 1% and the solution was rocked at 4° C. for 1 hr and centrifuged at 10,000 g for 10 min. 100 μl of glutathione sepharose bead was then added to the supernatant. It was rocked at 4° C. for 2-4 hrs, centrifuged and washed three times with PBS. 100 μl elution buffer was added followed by rotation for 10 min at room temperature, centrifugation at 300 g for 1 min and collection of the supernatant. Elutions were repeated three times and combined.
Binding experiments were performed with the surface plasmon resonance based biosensor instrument Biacore 3000 (Biacore AB, Uppsala, Sweden), at 25° C. Recombinant purified erbB receptors were provided by Dr. Che Law, Xcyte Therapeutics, Seattle, Wash. […] Peptides were injected at variable concentrations at 20 μl/min flow rate and binding to the receptors immobilized on the chip was monitored in real time. […]

Where [4] appears, read: immobilized extracellular domain, surface plasmon resonance, read-out: KD (μM) ErbB2.
[5] abbreviates: immobilized extracellular domain, surface plasmon resonance, read-out: KD (μM) ErbB3.
[6] abbreviates: immobilized extracellular domain, surface plasmon resonance, read-out: KD (μM) ErbB1.
Where [7] appears, read: FIG. 3A, erbB receptors immobilized on the sensor chip, global fitting to 1:1 Langmurian interaction model.
Setting [8] is: erbB2-SbdIV immobilized on the surface chip, FIG. 3B.

T4 sequence (P21860 20-643 limits assumed): as the sequence (P21860 20-643 limits assumed) above
T7 sequence (P04626 509-657): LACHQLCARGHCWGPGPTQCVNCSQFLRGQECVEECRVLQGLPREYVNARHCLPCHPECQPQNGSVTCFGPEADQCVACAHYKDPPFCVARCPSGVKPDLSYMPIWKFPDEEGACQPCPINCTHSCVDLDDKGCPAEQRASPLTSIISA
T6 sequence (P04626 23-652 limits assumed, one chain of several): as the sequence (P04626 23-652 limits assumed) above

In the case of `CC(C)C[C@@H]1NC(=O)[C@@H](NC(=O)[C@@H](N)Cc2ccc(O)cc2)CSSC[C@@H](C(=O)N[C@@H](Cc2ccc(O)cc2)C(N)=O)NC(=O)CNC(=O)[C@H](C)NC(=O)[C@H](CC(=O)O)NC(=O)[C@H](C)NC(=O)[C@H](Cc2ccc(O)cc2)NC(=O)[C@H](CCCCN)NC(=O)[C@H](Cc2c[nH]c3ccccc23)NC(=O)[C@H](C(C)C)NC1=O` [B1-S22-ALG] (H-YCLVWKYADAGCY-NH2; disulfide 2-12), in test [1], the “Percent Inhibition ErbB1” value was 65.2%. Moreover, the Kd at ErbB2 (setting [4]) amounted to 0.371 µM; on ErbB3 (setting [5]), 0.288 µM; at ErbB1 (setting [6]), 0.449 µM. In addition, the “Percent Inhibition ErbB3” value in test [2] is given as 75.1%. In addition, the “Percent Inhibition ErbB2” value in test [3] turned out to be 71.4%.
Turning to `CC[C@H](C)[C@@H]1NC(=O)[C@H](Cc2ccccc2)NC(=O)[C@@H](NC(=O)[C@@H](N)Cc2ccc(O)cc2)CSSC[C@@H](C(=O)N[C@@H](Cc2ccc(O)cc2)C(N)=O)NC(=O)[C@H](CC(=O)O)NC(=O)[C@@H]2CCCN2C(=O)[C@H](CC(=O)O)NC(=O)[C@H](C)NC(=O)[C@H](Cc2ccc(O)cc2)NC(=O)[C@H](CCCCN)NC(=O)[C@H](Cc2ccccc2)NC1=O` [B4-S22-AFD] (H-YCFIFKYADPDCY-NH2; disulfide 2-12), the “Percent Inhibition ErbB1” value in test [1] was found to be 60.3%. Also, the Kd on ErbB2 (setting [4]) worked out at 0.639 µM; at ErbB3 (setting [5]), 0.394 µM; on ErbB1 (setting [6]), 0.583 µM. Also, the “Percent Inhibition ErbB3” value in test [2] was 72.8%. For the same compound, the “Percent Inhibition ErbB2” value in test [3] is recorded as 54.2%.
For the compound `CC[C@H](C)[C@@H]1NC(=O)[C@@H]2CCCN2C(=O)[C@@H](NC(=O)[C@@H](N)Cc2ccc(O)cc2)CSSC[C@@H](C(=O)N[C@@H](Cc2ccc(O)cc2)C(N)=O)NC(=O)[C@H](CCC(N)=O)NC(=O)[C@H](C(C)C)NC(=O)[C@H](CC(=O)O)NC(=O)[C@@H]2CCCN2C(=O)[C@H](Cc2ccc(O)cc2)NC(=O)[C@H](CCCCN)NC(=O)[C@H](Cc2ccc(O)cc2)NC1=O` [B3-S22-APQ] (H-YCPIYKYPDVQCY-NH2; disulfide 2-12), the “Percent Inhibition ErbB1” value in test [1] turned out to be 69.0%. Besides, the results for the Kd on ErbB2 (setting [4]), on ErbB3 (setting [5]) and at ErbB1 (setting [6]) were 0.549 µM, 1.07 µM and 0.472 µM, respectively. The “Percent Inhibition ErbB3” value in test [2] stood at 32.4%. The “Percent Inhibition ErbB2” value in test [3] turned out to be 58.1%.
As for `CC[C@H](C)[C@@H]1NC(=O)[C@@H]2CCCN2C(=O)[C@@H](NC(=O)[C@@H](N)Cc2ccc(O)cc2)CSSC[C@@H](C(=O)N[C@@H](Cc2ccc(O)cc2)C(N)=O)NC(=O)[C@H](CCC(=O)O)NC(=O)[C@H](CCC(=O)O)NC(=O)[C@H](CC(=O)O)NC(=O)[C@@H]2CCCN2C(=O)[C@H](Cc2ccccc2)NC(=O)[C@H](CCCCN)NC(=O)[C@H](Cc2c[nH]c3ccccc23)NC1=O` [B2-S22-APE] (H-YCPIWKFPDEECY-NH2; disulfide 2-12), in test [1], the “Percent Inhibition ErbB1” value is 80.3%. Also, the koff at ErbB2 (setting [7]) is 0.000685 s⁻¹; at erbB2-SbdIV (setting [8]), 0.00307 s⁻¹. The kon worked out at 3240 M⁻¹ s⁻¹ at ErbB2 (setting [7]) and 1620 M⁻¹ s⁻¹ at erbB2-SbdIV (setting [8]). The Kd turned out to be 1.53 µM on ErbB2 (KD (μM) ErbB2, immobilized extracellular domain, surface plasmon resonance); 0.21 µM on ErbB2 (dissociation constant (Kd), FIG. 3A, koff/kon ratio); 1.89 µM on erbB2-SbdIV; 1.4 µM at ErbB3; 0.21 µM on ErbB1. In addition, the “Percent Inhibition ErbB3” value in test [2] came out at 42.7%. The “Percent Inhibition ErbB2” value in test [3] turned out to be 51.1%.
For the compound `CC[C@H](C)[C@@H]1NC(=O)[C@H](Cc2ccc(O)cc2)NC(=O)[C@@H](NC(=O)[C@@H](N)Cc2ccccc2)CSSC[C@@H](C(=O)N[C@@H](Cc2ccc(O)cc2)C(N)=O)NC(=O)[C@H](CCC(N)=O)NC(=O)[C@H](CC(=O)O)NC(=O)[C@H](CCC(=O)O)NC(=O)[C@H](C(C)C)NC(=O)[C@H](CCC(=O)O)NC(=O)CNC1=O` [CD4-G, reference compound] (H-FCYIGEVEDQCY-NH2; disulfide 2-11), the “Percent Inhibition ErbB1” value in test [1] worked out at 2.4%. Also, the Kd on ErbB2 (setting [4]), on ErbB3 (setting [5]) and at ErbB1 (setting [6]) was above 1000 µM in each case. Besides, in test [2], the “Percent Inhibition ErbB3” value is listed as 3.1%. For the same compound, the “Percent Inhibition ErbB2” value in test [3] was −1.2%.

Values taken from US8962793B2, “ErbB interface peptidomimetics and methods of use thereof” (The Trustees of the University of Pennsylvania, priority 2001, dated 2015).
